Source: patent publication US6562870B1 (priority 1994, dated 2003)
Where two headings read alike, the source gives them in different places.

Tests used:
[1] = stability of diluted infusion solutions; assay type: physicochemical; details: in 0.9% Sodium Chloride Injection or 5% Dextrose Injection
[2] = in vivo; cited from earlier work
[3] = test system: AS283 cells
Experimental: (§1) Both human tumor cell lines were maintained in RPMI 1640 medium plus 10% fetal calf serum. They were seeded in 15-ml rubber-stoppered vials containing 2 μCi of (^14C) glucose and 2 ml of tissue culture media. […] On days 6, 9 and 12, the vials were removed from the incubator and evaluated radiometrically for the amount of ^14CO2 produced. Inhibition of conversion of (^14C) glucose to ^14CO2 is a reliable index of cytotoxicity (Von Hoff et al., Cancer Res. 45:4032-4038, 1985).

[4] = test system: Raji line lymphoblast-like cells
Experimental: as §1

[5] = test system: advanced NHL; details: cited from earlier work
[6] = test system: AIDS-associated NHL
Experimental: The daily dose is diluted in 1000 cc of 0.9% Sodium Chloride Injection, USP, or 5% Dextrose Injection, USP, for infusion over 24 hours.

Structure (SMILES) | stability of diluted solution ([1]; refrigeration (2-8° C.)) | stability of diluted solution ([1]; room temperature (15-30° C.)) | blood-brain barrier passage [2] | % SURVIVAL AS283 ([3]; final concentration 1 mcg/ml) | % SURVIVAL AS283 ([3]; final concentration 10 mcg/ml) | % SURVIVAL AS283 ([3]; final concentration 50 mcg/ml) | % SURVIVAL AS283 ([3]; final concentration 100 mcg/ml) | % SURVIVAL RAJI ([4]; final concentration 1 mcg/ml) | % SURVIVAL RAJI ([4]; final concentration 10 mcg/ml) | % SURVIVAL RAJI ([4]; final concentration 100 mcg/ml) | tolerability and efficacy ([5]; HIV negative patients with advanced NHL) | myelosuppression or immunosuppression ([5]; human, in vivo) | drug-related adverse effects ([6]; 300 mg/sq m/day for 7 days iv, two courses) | size of nodes after first course ([6]; 300 mg/sq m/day for 7 days, intravenous infusion, baseline nodes 9.0×9.0 cm and 3.0×2.0 cm) | infraclavicular node after second course ([6]; second course three weeks later, baseline 9.0×9.0 cm) | response to previous treatment ([6]; same patient, before gallium nitrate)
O=[N+]([O-])[O-].O=[N+]([O-])[O-].O=[N+]([O-])[O-].[Ga+3] [Gallium Nitrate, gallium nitrate] | 7 days | 2 days | crosses the blood-brain barrier | 99% | 122% | 58% | 0% | 102% | 114% | 33% | well tolerated and effective | little or no myelosuppression or immunosuppression | not accompanied by apparent drug-related adverse effects | decreased in size | not palpable at all | 
CC(/C=N/NC(=N)N)=N\NC(=N)N [mitoguazone] |  |  |  |  |  |  |  |  |  |  |  |  |  |  |  | essentially unresponsive
